Reference: patent US20240270762A1, “PENICILLIN-BINDING PROTEIN INHIBITORS” (priority 2021, published 2024)
Converted amounts (≈) assume the structure as drawn. Read-outs that look alike come from different tables or passages of the source.

How the values were obtained:
[1] = tested on: P. aeruginosa ATCC 27853; assay: microbe, parasite or virus in culture; type: cell-based; conditions: Pseudomonas aeruginosa, ATCC27853, read-out: Minimum inhibitory concentration, P. aeruginosa ATCC 27853
[2] = tested on: P. aeruginosa CDC-0090; assay: microbe, parasite or virus in culture; type: cell-based; conditions: Pseudomonas aeruginosa, CDC0090, read-out: Minimum inhibitory concentration, P. aeruginosa CDC-0090
[3] = tested on: N. gonorrhoeae WHO X; assay: Liquid broth MIC in Fastidious broth; conditions: Neisseria gonorrhoeae
[4] = tested on: A. baumannii ATCC 19606; assay: microbe, parasite or virus in culture; type: cell-based; conditions: Acinetobacter baumannii, ATCC19606, read-out: MIC, A. baumannii ATCC 19606
[5] = tested on: A. baumannii ATCC 17978; assay: microbe, parasite or virus in culture; type: cell-based; conditions: Acinetobacter baumannii, ATCC17978, read-out: MIC, A. baumannii ATCC 17978
[6] = tested on: N. gonorrhoeae WHO Q; assay: Liquid broth MIC in Fastidious broth; conditions: Neisseria gonorrhoeae
[7] = tested on: A. baumannii CDC-0036; assay: microbe, parasite or virus in culture; type: cell-based; conditions: Acinetobacter baumannii, CDC0036, read-out: MIC, A. baumannii CDC-0036
[8] = tested on: A. baumannii 1258916; assay: microbe, parasite or virus in culture; type: cell-based, Acinetobacter baumannii; conditions: Acinetobacter baumannii, 1258916, read-out: MIC, A. baumannii 1258916
[9] = tested on: B. thailandensis ATCC 700388; assay: microbe, parasite or virus in culture; type: cell-based; conditions: Burkholderia thailandensis, ATCC700388, read-out: Minimum inhibitory concentration (MIC), B. thailandensis ATCC 700388
[10] = tested on: P. aeruginosa (ΔmexAB-oprM); assay: Broth microdilution MIC in iron-depleted CAMHB (IDM); type: cell-based; conditions: Pseudomonas aeruginosa; iron-depleted CAMHB (IDM); […]; read-out: Minimum inhibitory concentration, P. aeruginosa ΔmexAB-oprM
[11] = tested on: A. baumannii CDC-0045; assay: microbe, parasite or virus in culture; type: cell-based; conditions: Acinetobacter baumannii, CDC0045, read-out: MIC, A. baumannii CDC-0045
[12] = tested on: B. humptydooensis ATCC BAA-2767; assay: microbe, parasite or virus in culture; type: cell-based; conditions: Burkholderia humptydooensis, ATCCBAA2767, read-out: Minimum inhibitory concentration (MIC), B. humptydooensis ATCC BAA-2767
[13] = tested on: N. gonorrhoeae CDC-0197; assay: Liquid broth MIC in Fastidious broth; conditions: Neisseria gonorrhoeae
[14] = tested on: P. aeruginosa ATCC 35151; assay: microbe, parasite or virus in culture; type: cell-based; conditions: Pseudomonas aeruginosa, ATCC35151, read-out: Minimum inhibitory concentration, P. aeruginosa ATCC 35151
[15] = tested on: P. aeruginosa CDC-0110; assay: microbe, parasite or virus in culture; type: cell-based; conditions: Pseudomonas aeruginosa, CDC0110, read-out: Minimum inhibitory concentration, P. aeruginosa CDC-0110
[16] = read-out: Minimum Inhibitory Concentration, WHO X
[17] = read-out: Minimum Inhibitory Concentration, WHO Q
[18] = CDC0197, read-out: Minimum Inhibitory Concentration, CDC-0197
[19] = read-out: Minimum Inhibitory Concentration (MIC), N. gonorrhoeae WHO X
[20] = read-out: Minimum Inhibitory Concentration (MIC), N. gonorrhoeae WHO Q
[21] = CDC0197, read-out: Minimum Inhibitory Concentration (MIC), N. gonorrhoeae CDC-0197

Row | Structure (SMILES) | MIC [1] [µg/mL] | MIC [2] [µg/mL] | MIC [3, 16] [µg/mL] | MIC [4] [µg/mL] | MIC [5] [µg/mL] | MIC [6, 17] [µg/mL] | MIC [7] [µg/mL] | MIC [8] [µg/mL] | MIC [9] [µg/mL] | MIC [10] [µg/mL] | MIC [11] [µg/mL] | MIC [12] [µg/mL] | MIC [13, 18] [µg/mL] | MIC [14] [µg/mL] | MIC [15] [µg/mL] | MIC [3, 19] [µg/mL] | MIC [6, 20] [µg/mL] | MIC [13, 21] [µg/mL]
1 | O=C(O)c1c(F)ccc2c1OB(O)[C@@H](NC(=O)C(NC(=O)N1CCN(CCNC(=O)[C@@H]3CCCN3)C1=O)c1cc(F)c(O)c(O)c1Cl)C2 (stereo partly drawn) [Example 248, (3R)-3-(2-(2-chloro-5-fluoro-3,4-dihydroxyphenyl)-2-(2-oxo-3-(2-((S)-pyrrolidine-2-carboxamido)ethyl)imidazolidine-1-carboxamido)acetamido)-7-fluoro-2-hydroxy-3,4-dihydro-2H-benzo[e][1,2]oxaborinine-8-carboxylic acid] | 2 to 4 (≈ 2.88 to 5.76 µM) | 8 to 16 (≈ 11.5 to 23 µM) | > 64 | < 1 | < 1 | 16 to 32 (≈ 23 to 46.1 µM) | 2 to 4 (≈ 2.88 to 5.76 µM) | < 1 | 2 to 4 (≈ 2.88 to 5.76 µM) | < 1 | < 1 | < 1 | 16 to 32 (≈ 23 to 46.1 µM) | < 1 | < 1 |  |  | 
2 | O=C(NCCN1CCN(C(=O)NC(C(=O)N[C@H]2Cc3ccc(F)c(C(=O)O)c3OB2O)c2cc(F)c(O)c(O)c2Cl)C1=O)Nc1cccnc1 (stereo partly drawn) [Example 251, (3R)-3-(2-(2-chloro-5-fluoro-3,4-dihydroxyphenyl)-2-(2-oxo-3-(2-(3-(pyridin-3-yl)ureido)ethyl)imidazolidine-1-carboxamido)acetamido)-7-fluoro-2-hydroxy-3,4-dihydro-2H-benzo[e][1,2]oxaborinine-8-carboxylic acid] | < 1 | 2 to 4 (≈ 2.79 to 5.57 µM) | > 64 | < 1 | < 1 | > 64 | 2 to 4 (≈ 2.79 to 5.57 µM) | < 1 | < 1 | < 1 | < 1 | < 1 | > 64 | < 1 | < 1 |  |  | 
3 | O=C(NCCN1CCN(C(=O)NC(C(=O)N[C@H]2Cc3ccc(F)c(C(=O)O)c3OB2O)c2cc(F)c(O)c(O)c2Cl)C1=O)c1ccccc1 (stereo partly drawn) [Example 242, (3R)-3-(2-(3-(2-benzamidoethyl)-2-oxoimidazolidine-1-carboxamido)-2-(2-chloro-5-fluoro-3,4-dihydroxyphenyl)acetamido)-7-fluoro-2-hydroxy-3,4-dihydro-2H-benzo[e][1,2]oxaborinine-8-carboxylic acid] | 2 to 4 (≈ 2.85 to 5.7 µM) | < 1 |  | < 1 | < 1 |  | 2 to 4 (≈ 2.85 to 5.7 µM) | < 1 | 2 to 4 (≈ 2.85 to 5.7 µM) | < 1 | < 1 | 8 to 16 (≈ 11.4 to 22.8 µM) |  | < 1 | 2 to 4 (≈ 2.85 to 5.7 µM) | > 64 | > 64 | > 64
4 | O=C(NCCN1CCN(C(=O)NC(C(=O)N[C@H]2Cc3ccc(F)c(C(=O)O)c3OB2O)c2cc(F)c(O)c(O)c2Cl)C(=O)C1=O)Nc1ccc(O)cc1 (stereo partly drawn) [Example 219, (3R)-3-(2-(2-chloro-5-fluoro-3,4-dihydroxyphenyl)-2-(4-(2-(3-(4-hydroxyphenyl)ureido)ethyl)-2,3-dioxopiperazine-1-carboxamido)acetamido)-7-fluoro-2-hydroxy-3,4-dihydro-2H-benzo[e][1,2]oxaborinine-8-carboxylic acid] | 2 to 4 (≈ 2.63 to 5.26 µM) | < 1 |  | < 1 | < 1 |  | 8 to 16 (≈ 10.5 to 21 µM) | 2 to 4 (≈ 2.63 to 5.26 µM) | 8 to 16 (≈ 10.5 to 21 µM) | < 1 | 8 to 16 (≈ 10.5 to 21 µM) | 8 to 16 (≈ 10.5 to 21 µM) |  | < 1 | < 1 | > 64 | > 64 | > 64
5 | O=C(CN1CCN(C(=O)NC(C(=O)N[C@H]2Cc3ccc(F)c(C(=O)O)c3OB2O)c2cc(F)c(O)c(O)c2Cl)C(=O)C1=O)NCc1cccnc1 (stereo partly drawn) [Example 240, (3R)-3-(2-(2-chloro-5-fluoro-3,4-dihydroxyphenyl)-2-(2,3-dioxo-4-(2-oxo-2-((pyridin-3-ylmethyl)amino)ethyl)piperazine-1-carboxamido)acetamido)-7-fluoro-2-hydroxy-3,4-dihydro-2H-benzo[e][1,2]oxaborinine-8-carboxylic acid] | < 1 | 2 to 4 (≈ 2.74 to 5.47 µM) |  | < 1 | < 1 |  | 2 to 4 (≈ 2.74 to 5.47 µM) | < 1 | 2 to 4 (≈ 2.74 to 5.47 µM) | < 1 | 2 to 4 (≈ 2.74 to 5.47 µM) | 2 to 4 (≈ 2.74 to 5.47 µM) |  | < 1 | < 1 | > 64 | 16 to 32 (≈ 21.9 to 43.8 µM) | 16 to 32 (≈ 21.9 to 43.8 µM)
6 | O=C(NCCCN1CCN(C(=O)NC(C(=O)N[C@H]2Cc3ccc(F)c(C(=O)O)c3OB2O)c2cc(F)c(O)c(O)c2Cl)C(=O)C1=O)c1ccncc1 (stereo partly drawn) [Example 205, (3R)-3-(2-(2-chloro-5-fluoro-3,4-dihydroxyphenyl)-2-(4-(3-(isonicotinamido)propyl)-2,3-dioxopiperazine-1-carboxamido)acetamido)-7-fluoro-2-hydroxy-3,4-dihydro-2H-benzo[e][1,2]oxaborinine-8-carboxylic acid] | < 1 | < 1 |  | < 1 | < 1 |  | < 1 | < 1 | < 1 | < 1 | < 1 | < 1 |  | < 1 | < 1 | > 64 | 16 to 32 (≈ 21.5 to 43 µM) | 16 to 32 (≈ 21.5 to 43 µM)
7 | O=C(NCCN1CCN(C(=O)NC(C(=O)N[C@H]2Cc3ccc(F)c(C(=O)O)c3OB2O)c2cc(F)c(O)c(O)c2Cl)C1=O)c1cccc(O)c1 (stereo partly drawn) [Example 244, (3R)-3-(2-(2-chloro-5-fluoro-3,4-dihydroxyphenyl)-2-(3-(2-(3-hydroxybenzamido)ethyl)-2-oxoimidazolidine-1-carboxamido)acetamido)-7-fluoro-2-hydroxy-3,4-dihydro-2H-benzo[e][1,2]oxaborinine-8-carboxylic acid] | 2 to 4 (≈ 2.79 to 5.57 µM) | < 1 |  | < 1 | < 1 |  | 2 to 4 (≈ 2.79 to 5.57 µM) | < 1 | > 128 | < 1 | 2 to 4 (≈ 2.79 to 5.57 µM) | 2 to 4 (≈ 2.79 to 5.57 µM) |  | < 1 | 2 to 4 (≈ 2.79 to 5.57 µM) | > 64 | > 64 | > 64
8 | O=C(NCCN1CCN(C(=O)NC(C(=O)N[C@H]2Cc3ccc(F)c(C(=O)O)c3OB2O)c2cc(F)c(O)c(O)c2Cl)C1=O)Nc1ccncc1 (stereo partly drawn) [Example 250, (3R)-3-(2-(2-chloro-5-fluoro-3,4-dihydroxyphenyl)-2-(2-oxo-3-(2-(3-(pyridin-4-yl)ureido)ethyl)imidazolidine-1-carboxamido)acetamido)-7-fluoro-2-hydroxy-3,4-dihydro-2H-benzo[e][1,2]oxaborinine-8-carboxylic acid] | 2 to 4 (≈ 2.79 to 5.57 µM) | 2 to 4 (≈ 2.79 to 5.57 µM) | > 64 | < 1 | < 1 | > 64 | 2 to 4 (≈ 2.79 to 5.57 µM) | < 1 | > 128 | < 1 | < 1 | < 1 | > 64 | < 1 | 2 to 4 (≈ 2.79 to 5.57 µM) |  |  | 
9 | O=C(NCCN1CCN(C(=O)N[C@@H](C(=O)N[C@H]2Cc3ccc(F)c(C(=O)O)c3OB2O)c2cc(F)c(O)c(O)c2Cl)C(=O)C1=O)Nc1cccnc1 [Example 222, (R)-3-((R)-2-(2-chloro-5-fluoro-3,4-dihydroxyphenyl)-2-(2,3-dioxo-4-(2-(3-(pyridin-3-yl)ureido)ethyl)piperazine-1-carboxamido)acetamido)-7-fluoro-2-hydroxy-3,4-dihydro-2H-benzo[e][1,2]oxaborinine-8-carboxylic acid] | < 1 | 2 to 4 (≈ 2.68 to 5.36 µM) |  | < 1 | < 1 |  | 2 to 4 (≈ 2.68 to 5.36 µM) | 2 to 4 (≈ 2.68 to 5.36 µM) | 2 to 4 (≈ 2.68 to 5.36 µM) | < 1 | < 1 | 2 to 4 (≈ 2.68 to 5.36 µM) |  | < 1 | < 1 | > 64 | > 64 | > 64
